Consider 24 compounds from PubChem BioAssay (NCI).

“And” between values parts separate entries of the source, which are not always exact repeats. Equal entries are not always repeated.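 Assay format: 96-well plates, 48-hour exposure. Here, GI50 denotes the concentration required for 50% inhibition of growth. TGI: total growth inhibition.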

Common to all, as to test: NCI anticancer screen, dose series, 48 h
In test [1] the test system is CAKI-1 renal.
Test [2] concerns SK-MEL-2 melanoma.
The test system of test [3] is SK-MEL-5 melanoma.
Test [4] has as its system SF-539 CNS.
For test [5], the system named is K-562 leukemia.
For test [6], the system named is SK-MEL-28 melanoma.
The subject of test [7] is COLO 205 colon.
In test [8] the test system is SF-295 CNS.
In test [9] the test system is SF-268 CNS.
For test [10], the system named is NCI-H522 lung.

Take `c1ccc(SC(CCCCC(Sc2ccccc2)Sc2ccccc2)Sc2ccccc2)cc1`: the TGI in [1], in test [2], in test [3], in test [4], in [5] and in test [6] was > 100 µM each time. Moreover, the TGI in [7], in test [8] and in test [9] was > 100 µM each time.
As to `CCCCNCC(=O)O[C@]1(CC)C(=O)OCc2c1cc1n(c2=O)Cc2cc3ccccc3nc2-1`, the TGI was 4.82 µM in test [10]; 8.76 µM in test [2]; 1.27 µM in test [3]; 0.849 µM in [4]; > 48.7 µM in test [5]; > 93.8 µM in test [6]. For the same compound, the figures for the TGI in test [7], in test [8] and in test [9] were 17.5 µM, 11.7 µM and > 95.6 µM, respectively.
As for `CCOC(=O)C(C)(c1cn(C)c2ccccc12)c1cn(C)c2ccccc12`, the TGI in test [1], in test [2], in test [3], in test [4], in test [5] and in test [6] was > 100 µM each time. Further, the TGI in [8] was > 100 µM.
Consider `CN(C)c1ccc2c(c1)Sc1cc(N(C)C)ccc1N2C(=O)c1ccccc1`, for which the GI50 is 14.7 µM in test [1]; 28.1 µM in [3]; 38.2 µM in [4]; 2.69 µM in test [5]; 43.1 µM in [6]; > 100 µM in test [7]. In addition, the GI50 in test [8] was 10.1 µM; in test [9], 30.3 µM. For the same compound, the TGI in test [1], in test [3], in test [4], in [5], in test [6] and in test [7] was > 100 µM throughout. Moreover, the TGI in test [8] and in [9] was > 100 µM each time.
In the case of `Brc1cccc(C2SCc3nc4ccccc4n32)c1` (centres undefined), the TGI in test [10] was 36.6 µM; in [1], > 100 µM; in test [3] it was 18.9 µM; in test [4] it was 40.9 µM; in test [5], > 100 µM; in test [6], 47.9 µM. Further, the TGI was 38.6 µM in [7], 86.3 µM in [8] and > 100 µM in test [9].
Take `CCC1CN2CCc3cc(OC)c(OC)cc3C2CC1CC1c2cc(OC)c(OC)cc2CCN1C(=O)C1CCCN1C(=O)OCc1ccccc1` (centres undefined): the TGI turned out to be 47.3 µM in test [1]; 33.6 µM in test [2]; 28.8 µM in test [3]; 33 µM in test [4]; 36 µM in [5]; 30.7 µM in [6]. The TGI is 30.4 µM in [8] and 31.9 µM in test [9].
For `CCCCCCc1cc(C(=O)Nc2cccc(C(F)(F)F)c2)nc(N)n1`, the TGI in test [1], in [2], in test [3], in test [4], in [5] and in [6] was > 100 µM throughout. The TGI in test [7], in test [8] and in [9] was > 100 µM each time.
As to `C=CCOC1OC(CO[Si](C)(C)C(C)(C)C)C(OCc2ccccc2)C(OCc2ccccc2)C1OCc1ccccc1` (centres undefined), the TGI in test [10], in test [1], in test [2], in test [3], in test [5] and in test [6] was > 100 µM each time. The results for the TGI in [7], in test [8] and in [9] were > 100 µM, 54.9 µM and > 100 µM, respectively.
Take `CCOC(=O)C(=O)Nc1c(CC)cccc1C(C)C`: the TGI in test [1], in test [2], in [4], in test [6], in [7] and in test [8] was > 100 µM throughout. Moreover, in test [9], the TGI was > 100 µM.
With `CC(CN1CCN(CCOCCO)CC1)CN1c2ccccc2Sc2ccc(Cl)cc21` (centres undefined), the GI50 in [10] is 1.71 µM; in [1], 4.37 µM; in test [2], 1.87 µM; in [3], 1.69 µM; in test [4], 2.52 µM; in test [5], 1.96 µM. The GI50 in [6] was 1.75 µM; in test [7], 1.69 µM; in test [9], 4.87 µM. The TGI in [10] amounted to 3.36 µM; in test [1] it was 17.1 µM; in test [2], 3.63 µM; in test [3], 3.07 µM; in test [4], 6.94 µM; in test [5], 4.18 µM. For the same compound, the TGI in [6] was determined as 3.22 µM; in [7], 3.18 µM; in [9], 18.4 µM.
On to `N#CC(C(=O)CCC(=O)Nc1cccc(Cl)c1)c1ccccc1` (centres undefined), for which the TGI in test [10], in [2], in [3], in [4], in test [5] and in [6] was > 100 µM each time. Further, the TGI in test [7], in [8] and in test [9] was > 100 µM each time.
As for `O=C(/C(=C/c1ccc([N+](=O)[O-])cc1)c1ccccc1)c1ccccc1`, the GI50 was 3.08 µM in test [5]; 2.27 µM in test [6]; 3.81 µM in test [7]; 3.56 µM in test [8]; 3.55 µM in [9]. Besides, the TGI is > 100 µM in test [5]; 5.63 µM in test [6]; 18.2 µM in test [7]; > 100 µM in [8]; > 100 µM in test [9].
Take `CCOC(=O)c1oc2ccc(OC)c3c2c1CCC3`: the TGI in [10], in test [2], in [3], in test [4], in test [5] and in [6] was > 100 µM in each case. For the same compound, the TGI in test [7], in [8] and in test [9] was > 100 µM each time.
As for `COc1cc2c(c(OC)c1OC)-c1ncc3cc(OC)c(OC)c(OC)c3c1C2`, the GI50 was 16.1 µM in test [10]; 22.5 µM in test [1]; 22.9 µM in test [2]; 15.5 µM in test [3]; 15.3 µM in test [5]; 25.4 µM in test [6]. Further, the GI50 is 25.8 µM in [7] and 18.7 µM in test [8]. For the same compound, the TGI in [10] was 43.2 µM; in [1] it was 74.3 µM; in test [2] it was 56.8 µM; in test [3], 29.5 µM; in [5], 50.8 µM; in [6] it was 78.1 µM. The results for the TGI in [7] and in test [8] were 50.3 µM and 42.4 µM, respectively.
With `O=C(O)C/C=C/CC(=O)O`, the TGI in test [10], in test [1], in test [2], in test [3], in test [5] and in test [6] was > 100 µM each time. Also, the TGI in test [7], in [8] and in test [9] was > 100 µM throughout.
As for `CS(=O)(=O)c1ccc(C(=O)Nc2ccc(Cl)c(-c3ccccn3)c2)c(Cl)c1`, the TGI in test [10] was > 94 µM and 9.43 µM; in [4], > 100 µM and 13.7 µM; in [5], > 100 µM and 45.7 µM; in test [6], > 100 µM and 16.3 µM; in test [9], > 100 µM and 66.5 µM.
As for `CCOC(=O)C1Oc2ccc([N+](=O)[O-])c3c2C1(O)CCC3` (centres undefined), the TGI in test [10], in test [2], in [3], in test [4], in test [5] and in test [6] was > 100 µM each time. The TGI in [7], in [8] and in test [9] was > 100 µM throughout.
Consider `O=C1c2ccccc2-c2c1c1ccc([N+](=O)[O-])cc1c(=O)n2CCCBr`, for which the GI50 in [10] is 96.8 µM; in test [1] it was 3.23 µM; in test [2], > 100 µM; in test [4] it was > 100 µM; in test [5], > 100 µM; in test [6], > 100 µM. In addition, the GI50 in test [7] and in [9] was > 100 µM throughout. For the same compound, the TGI in test [10], in test [1], in test [2], in test [4], in test [5] and in [6] was > 100 µM throughout. The TGI in [7] and in [9] was > 100 µM each time.
On to `C=CC(=O)N(C)[C@H]1C[C@H]2OC(C)(C1OC)n1c3ccccc3c3c4c(c5c6ccccc6n2c5c31)C(=O)NC4` (some centres undefined), for which the GI50 in test [10] is 0.0839 µM; in test [2] it was 0.193 µM; in test [3], 0.262 µM; in [4], 0.083 µM; in [5], 0.233 µM; in [6] it was 0.369 µM. The values for the GI50 in test [7], in test [8] and in [9] were 0.0831 µM, 0.0815 µM and 0.0599 µM, respectively. For the same compound, the TGI in test [10] was 0.565 µM; in test [2], 1.49 µM; in [3], 0.972 µM; in test [4], 0.379 µM; in test [5], > 50 µM; in test [6] it was 2.08 µM. For the same compound, the TGI in test [7] is 0.253 µM; in [8], 0.827 µM; in test [9], 1.26 µM.
Turning to `C=C1COC(/C=C(\C)CC/C=C(\C)CCl)C1` (centres undefined), the TGI in [10], in test [2], in [3], in test [4], in [5] and in test [6] was > 100 µM each time. Moreover, the TGI in test [7], in test [8] and in [9] was > 100 µM in each case.
As to `CCCCCCCCCCCC(=O)OCCOCCOCCOCCOCCOCc1ccc(OC)cc1`, the TGI in [10], in test [1], in test [2], in test [3], in test [5] and in [6] was > 100 µM in each case. Besides, the TGI in test [7], in [8] and in [9] was > 100 µM throughout.
In the case of `COc1ccc(C2CC(c3cc(OC)c(OC)c(OC)c3)=NN2C(C)=O)cc1OCC(=O)Nc1nc2ccc(C(F)(F)F)cc2s1` (centres undefined), the GI50 is 2.71 µM in test [10]; 3.08 µM in test [2]; 3.56 µM in [3]; 1.75 µM in [4]; 3.94 µM in test [7]; 3.06 µM in test [8]. In test [9], the GI50 is 3.84 µM. Moreover, the TGI in test [10] is > 100 µM; in test [2] it was 20.4 µM; in test [3] it was > 100 µM; in test [4] it was 3.42 µM; in test [7] it was > 100 µM; in [8] it was 11.5 µM. The compound further had a TGI in test [9] of 29.5 µM.
For `CC(C)(C)c1ccc(OCCCCCCN2CCNCC2)cc1`, the GI50 in test [10] was 13.6 µM; in test [1], 4.72 µM; in [3], 1.87 µM; in test [4], 5.98 µM; in [5], 1.75 µM; in test [6], 3.23 µM. For the same compound, the results for the GI50 in [7], in test [8] and in test [9] were 1.95 µM, 8.82 µM and 10.7 µM, respectively. For the same compound, the TGI in test [10] worked out at 31.7 µM; in test [1] it was 17 µM; in test [3], 3.49 µM; in [4] it was 20.6 µM; in test [5] it was 4.48 µM; in test [6], 11.4 µM. Further, the TGI in [7] came out at 4.09 µM; in [8], 22.3 µM; in test [9], 24.4 µM.
As for `Cc1c(C#N)c(=O)[nH]c(=O)n1CCN1CCN(C(=O)NCCCCCCNC(=O)N2CCN(CCn3c(C)c(C#N)c(=O)[nH]c3=O)CC2)CC1`, the TGI in [1], in test [3], in test [4], in test [5], in test [6] and in test [7] was > 100 µM in each case. For the same compound, the TGI in [8] was > 100 µM.
